Data published in patent US8729226B2, “Cancer therapy method” (Centro de Ingenieria Genetica y Biotecnologia, priority 2010, dated 2014).

How the values were obtained:
COMMD1 protein [1] = biological target: T1, COMMD1 protein (Homo sapiens, UniProt Q8N668); assay: two-hybrid yeast system, L2 peptide-protein interaction; assay type: binding; design: expressed in transfected cells; host or cells: Saccharomyces cerevisiae Y187 (mated with AH109 carrying pGBKL2-1); details: COMMD1 deletion clones
Protocol: To identify anti-tumor L2 peptide-protein interactions the two-hybrid yeast system was used. For cloning the sequences corresponding to the peptide the oligonucleotides were designed as follows:
corresponding to the L2 peptide sequence: […] For cloning these sequences in the pGBKT7 NcoI-BamHI vector, sequences complementary to these sites were added at the ends of the oligonucleotides. The pGBKL2-1 recombinant plasmid, which carries the L2 peptide sequence was verified by restriction analysis and sequencing. The plasmid was transformed into the AH109 yeast strain by the lithium acetate method and grown in SD-Trp medium. It was verified that it could not be self-activated when grown on SD-Trp-His plates. For the screening of the interactions, a human liver cDNA library transformed into the Y187 strain was used. For the diploid formation and the selection of interactions, 5×10^8 AH109 cells containing the pGBKL2-1 plasmid were grown with 5×10^8 Y187 cells containing the human liver DNA library, for 4 hours, on solid medium YPDA at 30° C. Ten ml of sterile water were added on the surface of the YPDA plates, and the cells were suspended carefully with spatula and transferred to 15 plates of SD-Trp-Leu-His-Ade minimal media and grown at 30° C. for 7 days. The 74 resulting colonies were transferred to liquid SD-Trp-Leu in 96 deep well plates. […]
Target sequence in this assay (Q8N668 6-190): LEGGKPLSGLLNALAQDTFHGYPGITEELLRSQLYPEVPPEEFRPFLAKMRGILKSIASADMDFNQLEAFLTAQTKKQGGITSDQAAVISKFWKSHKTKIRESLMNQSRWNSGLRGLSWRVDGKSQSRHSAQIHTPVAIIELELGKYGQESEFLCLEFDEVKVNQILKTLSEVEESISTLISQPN

COMMD1 protein [2] = biological target: T1, COMMD1 protein; assay: pulldown with biotinylated L2 peptide, SW948 total protein extract, Western blot; assay type: binding; design: Total extract protein from SW948 (cell line from human colon carcinoma); endogenous in cells; host or cells: SW948; details: compared to total protein extract
Protocol: (A) The synthetic L2 peptide (SEQ ID No. 1), synthesized using a solid phase procedure was biotinylated and used as “bait” attached to a streptavidin sepharose resin. Total extract protein from SW948 (cell line from human colon carcinoma) was used as a “prey”. These experiments are known as “pulldown”. The total extract protein was obtained from […] cells using extraction buffer (Triton X-100 0.5% 25 mM HEPES, pH 7.5, 100 mM NaCl, 1 mM EDTA, 10% glycerol, 1 mM dithiothreitol (DTT), and a protease inhibitor). The biotinylated peptide (300 μg) was incubated with 50 μL of streptavidin sepharose resin (GE Healthcare), for 1 hour, and washed with phosphate buffered saline (PBS 1×) plus 1 mM DTT were done. Then, 500 μL of total proteins were incubated with 50 μL resin containing the biotinylated peptide, at room temperature for 5 hours. Subsequently, the resin is washed extensively with PBS 1× and 1 mM DTT. Proteins remaining attached to the resin are those that interact with the peptide, and are suspended in 25 μL of electrophoresis buffer (62.5 mM Tris HCl, pH 6.9, 0.1 M DTT, 20% sodium dodecyl-sulphate (SDS), 10% glycerol and 0.01% bromophenol blue). To detect the protein of interest a polyacrylamide gel electrophoresis (7.5%) was performed, followed by immunodetection by Western blot. To detect the COMMD1 protein, a monoclonal antibody against COMMD1 protein (Sigma, clone 2A12) was used. […]
Target sequence in this assay (Q8N668 whole entry): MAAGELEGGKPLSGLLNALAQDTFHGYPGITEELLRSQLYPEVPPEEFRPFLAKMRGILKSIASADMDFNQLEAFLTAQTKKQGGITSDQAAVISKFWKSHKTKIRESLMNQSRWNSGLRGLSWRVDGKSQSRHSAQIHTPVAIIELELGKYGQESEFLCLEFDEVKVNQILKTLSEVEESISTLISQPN

[3] = tested on: COMMD1 nuclear localization in SW948 cells; assay: COMMD1 sub-cellular (nuclear) localization in SW948 cells, Western blot; assay type: cell-based, human; details: peptide 50 μM, 5 hours
Protocol: (B) SW948 cells (3×10^6 cells) were incubated for 5 hours at 37° C. and 5% CO2 with the L2 peptide (50 μM). Subsequently, cytosolic and nuclear proteins were obtained as reported (Vancurova et al., 2001, Journal of Biological Chemistry, 276: 19746-19752). The COMMD1 detection was performed by Western blot using an anti-COMMD1 antibody. […] Beta Actin was used as a control for the cytoplasmic fraction and the human ribonucleoprotein (hnRNP) as a control of the nuclear fraction.
In this experiment the objective was to identify a peptide with a higher capacity to accumulate COMMD1 in the nucleus of the cells. SW948 cells (3×10^6 cells) were incubated for 5 hours at 37° C. and 5% CO2 with L2, L551, L552, L553 and L554 peptides (50 μM). Subsequently, isolation of cytosolic and nuclear proteins was performed as described in Example 2. COMMD1 detection was performed by Western blot using an anti-COMMD1 antibody. […] Also, the interaction is related to the facilitation of nuclear accumulation of COMMD1.

HT-29 tumor cells = assay: combination L552 peptide and cytostatic, MTT, CalcuSyn, HT-29; assay type: cell-based, human
Protocol: (§1) For this assay, HT-29 and H-125 tumor cells were seeded in 96-well plates (Costar) at a density of 1×10^4 cells mL in RPMI 1640 (Gibco) supplemented with fetal calf serum (Gibco). After 24 hours, the peptide was added to the culture medium in a dose range between 9 μM and 300 μM and the cytostatic drug was added in a range dose of 1:10 serial dilution over and below the reported IC50 for each cell line. […] The effect of concomitant treatment cytostatic-peptide was analyzed by the CalcuSyn computer software to study drug combinations (Ting-Chao Chou, 2006, Pharmacological Reviews, 58: 621-681). […] The combination 5-FU+L552 peptide allows a 20 times reduction (RI) of cytostatic in the HT-29 cell line. For the combination cisplatin+L552 peptide, the cytostatic reduction is 5 times in the H-125 cell line. […] This can reduce the adverse effects associated with chemotherapy.

[4] = tested on: HT-29 cell line transiently transfected with GFP-N-COMMD1; assay: chemosensitivity to 5-FU of transfected HT-29 cells, MTT; assay type: cell-based, human; details: cells expressing GFP-NCOMMD1 compared to GFP or GFP-COMMD1, 48 hours
Protocol: (A) The HT-29 cell line transiently transfected with constructs described above were seeded in 96-well plates (Costar) at density of 1×10^4 cells/mL in RPMI 1640 (Gibco) supplemented with fetal calf serum (Gibco) After 24 hours, the cytostatic 5-FU was added to the culture medium in a dose range between 0.025 μM and 2500 μM, in 1:10 serial dilutions. […] Finally, the plate reading at an absorbance of 492 nm was carried out. Each point was performed in duplicate, and experiments were carried out at least twice independently. The IC50 values were obtained from the respective curves of cell proliferation.

H-125 tumor cells = assay: combination L552 peptide and cytostatic, MTT, CalcuSyn, H-125; assay type: cell-based, human
Protocol: as §1

HARIKPTFRRLKWKYKGKFW [Peptide L2, Peptide previously described in application WO 07/095 867]
interaction with COMMD1 (region responsible) (COMMD1 protein [1]): specifically binds the region between amino acids 110-190 | COMMD1 pulled down by the peptide (COMMD1 protein [2]): concentrates the COMMD1 protein | COMMD1 nuclear localization / accumulation [3]: COMMD1 nuclear localization

O=c1[nH]cc(F)c(=O)[nH]1 [Peptide 5-FU, 5-fluorouracil]
Drug 5-FU (HT-29 tumor cells; HT-29, at Af 89%): 5000 µM | RI (5-FU) (HT-29 tumor cells; HT-29, reduction index of the drug in combination with L552): 20 | IC50 of 5-FU [4]: reduction of the IC50

N.N.[Cl][Pt][Cl] [cisplatin]
Drug cisplatin (H-125 tumor cells; H-125, at Af 94%): 273 µM | RI (cisplatin) (H-125 tumor cells; H-125, reduction index of the drug in combination with L552): 5
